Literature values, collected in patent publication US20100003344A1, “Cosmetic Skincare Method Employing Mechanical Stresses” (L'OREAL, priority 2005, published 2010).
Where two headings read alike, the source gives them in different places. Ends that are not written are not given here.

Columns and labels:
[1] = test system: α2, α3, α6, αv and β1 integrins; details: keratinocytes in culture or in reconstructed skins
β1 integrins [2] = test system: β1 integrins
beta1 integrins = details: stated as known
β1 integrins [3] = details: cells in culture
β1 integrins [4] = details: applied to the skin ex vivo

Row | Substance | expression of integrins, in particular the α2, α3, α6, αv and β1 integrins [1] | number of mechanoreceptors (beta1 integrins) on the surface of the keratinocytes (beta1 integrins) | further results
1 | zinc gluconate | capable of increasing the expression of integrins |  | 
2 | RDFTKATNIRLRFLR [VINCI 01] |  |  | expression of β1 integrins (β1 integrins [2]): stimulates the expression of β1 integrins
3 | copper gluconate | capable of increasing the expression of integrins |  | 
4 | manganese gluconate | capable of increasing the expression of integrins | increase the number of mechanoreceptors | 
5 | KLDAPT [VINCI 02] |  | increase the number of mechanoreceptors | expression of β1 integrins (β1 integrins [3]): stimulates the expression of β1 integrins
6 | GPQGPQ [COLLAXYL] |  |  | expression of β1 integrins (β1 integrins [4]): stimulates the expression of β1 integrins
